From PubChem BioAssay (NCI)
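In this assay, cells in 96-well plates receive the compound at five concentrations for 48 hours. Endpoints are linearly interpolated between the surrounding concentrations. TGI: concentration producing complete growth inhibition.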

How the values were obtained:
Assay in all cases: NCI anticancer screen, dose series, 48 h
HCC-2998 colon = tested on: HCC-2998 colon
CCRF-CEM leukemia = tested on: CCRF-CEM leukemia
K-562 leukemia = tested on: K-562 leukemia
HOP-62 NSCLC = tested on: HOP-62 NSCLC
MDA-N = tested on: MDA-N
SN12C renal = tested on: SN12C renal
SF-539 CNS = tested on: SF-539 CNS
DU-145 prostate = tested on: DU-145 prostate
IGROV1 ovarian = tested on: IGROV1 ovarian
CAKI-1 renal = tested on: CAKI-1 renal
NCI-H460 lung = tested on: NCI-H460 lung
COLO 205 colon = tested on: COLO 205 colon
HCT-15 colon = tested on: HCT-15 colon
LOX IMVI melanoma = tested on: LOX IMVI melanoma
OVCAR-4 ovarian = tested on: OVCAR-4 ovarian
SK-OV-3 ovarian = tested on: SK-OV-3 ovarian
T-47D breast = tested on: T-47D breast
RPMI-8226 leukemia = tested on: RPMI-8226 leukemia
HOP-92 NSCLC = tested on: HOP-92 NSCLC
A498 renal = tested on: A498 renal
U251 CNS = tested on: U251 CNS
HS 578T breast = tested on: HS 578T breast
KM12 colon = tested on: KM12 colon
NCI/ADR-RES ovarian = tested on: NCI/ADR-RES ovarian
A549 NSCLC = tested on: A549 NSCLC
786-0 renal = tested on: 786-0 renal
SNB-75 CNS = tested on: SNB-75 CNS
UO-31 renal = tested on: UO-31 renal
SK-MEL-5 melanoma = tested on: SK-MEL-5 melanoma
NCI-H23 lung = tested on: NCI-H23 lung
MALME-3M melanoma = tested on: MALME-3M melanoma
OVCAR-8 ovarian = tested on: OVCAR-8 ovarian
NCI-H226 lung = tested on: NCI-H226 lung
BT-549 breast = tested on: BT-549 breast
TK-10 renal = tested on: TK-10 renal
SW-620 colon = tested on: SW-620 colon
MCF7 breast = tested on: MCF7 breast
EKVX NSCLC = tested on: EKVX NSCLC
SR leukemia = tested on: SR leukemia
HL-60(TB) leukemia = tested on: HL-60(TB) leukemia
UACC-257 melanoma = tested on: UACC-257 melanoma
M14 melanoma = tested on: M14 melanoma
UACC-62 melanoma = tested on: UACC-62 melanoma
MOLT-4 leukemia = tested on: MOLT-4 leukemia
SF-268 CNS = tested on: SF-268 CNS
MDA-MB-231 breast = tested on: MDA-MB-231 breast
MDA-MB-435 = tested on: MDA-MB-435
OVCAR-5 ovarian = tested on: OVCAR-5 ovarian
NCI-H522 lung = tested on: NCI-H522 lung
OVCAR-3 ovarian = tested on: OVCAR-3 ovarian
HCT-116 colon = tested on: HCT-116 colon
PC-3 prostate = tested on: PC-3 prostate
HT29 colon = tested on: HT29 colon
SF-295 CNS = tested on: SF-295 CNS
SNB-19 CNS = tested on: SNB-19 CNS
SK-MEL-2 melanoma = tested on: SK-MEL-2 melanoma
ACHN renal = tested on: ACHN renal
RXF 393 renal = tested on: RXF 393 renal
SK-MEL-28 melanoma = tested on: SK-MEL-28 melanoma

SMILES: CO/C(=N\N=C\c1ccc(OC)c(OC)c1)c1ccncc1
- TGI (HCC-2998 colon): > 10 µM
- TGI (CCRF-CEM leukemia): > 10 µM
- TGI (K-562 leukemia): > 10 µM
- TGI (HOP-62 NSCLC): > 10 µM
- TGI (MDA-N): > 10 µM
- TGI (SN12C renal): > 10 µM
- TGI (SF-539 CNS): > 10 µM
- TGI (DU-145 prostate): > 10 µM
- TGI (IGROV1 ovarian): > 10 µM
- TGI (CAKI-1 renal): > 10 µM
- TGI (NCI-H460 lung): > 10 µM
- TGI (COLO 205 colon): > 10 µM
- TGI (HCT-15 colon): > 10 µM
- TGI (LOX IMVI melanoma): > 10 µM
- TGI (OVCAR-4 ovarian): > 10 µM
- TGI (SK-OV-3 ovarian): > 10 µM
- TGI (T-47D breast): > 10 µM
- TGI (RPMI-8226 leukemia): > 10 µM
- TGI (HOP-92 NSCLC): > 10 µM
- TGI (A498 renal): > 10 µM
- TGI (U251 CNS): > 10 µM
- TGI (HS 578T breast): > 10 µM
- TGI (KM12 colon): > 10 µM
- TGI (NCI/ADR-RES ovarian): > 10 µM
- TGI (A549 NSCLC): > 10 µM
- TGI (786-0 renal): > 10 µM
- TGI (SNB-75 CNS): > 10 µM
- TGI (UO-31 renal): > 10 µM
- TGI (SK-MEL-5 melanoma): > 10 µM
- TGI (NCI-H23 lung): > 10 µM
- TGI (MALME-3M melanoma): > 10 µM
- TGI (OVCAR-8 ovarian): > 10 µM
- TGI (NCI-H226 lung): > 10 µM
- TGI (BT-549 breast): > 10 µM
- TGI (TK-10 renal): > 10 µM
- TGI (SW-620 colon): > 10 µM
- TGI (MCF7 breast): > 10 µM
- TGI (EKVX NSCLC): > 10 µM
- TGI (SR leukemia): > 10 µM
- TGI (HL-60(TB) leukemia): > 10 µM
- TGI (UACC-257 melanoma): > 10 µM
- TGI (M14 melanoma): > 10 µM
- TGI (UACC-62 melanoma): > 10 µM
- TGI (MOLT-4 leukemia): > 10 µM
- TGI (SF-268 CNS): > 10 µM
- TGI (MDA-MB-231 breast): > 10 µM

SMILES: O=C(NNCC(O)COc1ccccc1)c1ccccc1 (stereo not given)
- TGI (HCC-2998 colon): > 100 µM
- TGI (MDA-MB-435): > 100 µM
- TGI (CCRF-CEM leukemia): > 100 µM
- TGI (K-562 leukemia): > 100 µM
- TGI (HOP-62 NSCLC): > 100 µM
- TGI (OVCAR-5 ovarian): > 100 µM
- TGI (MDA-N): > 100 µM
- TGI (NCI-H522 lung): > 100 µM
- TGI (SN12C renal): > 100 µM
- TGI (SF-539 CNS): > 100 µM
- TGI (DU-145 prostate): > 100 µM
- TGI (IGROV1 ovarian): > 100 µM
- TGI (OVCAR-3 ovarian): > 100 µM
- TGI (HCT-116 colon): > 100 µM
- TGI (PC-3 prostate): > 100 µM
- TGI (CAKI-1 renal): > 100 µM
- TGI (COLO 205 colon): > 100 µM
- TGI (HCT-15 colon): > 100 µM
- TGI (LOX IMVI melanoma): > 100 µM
- TGI (OVCAR-4 ovarian): > 100 µM
- TGI (HT29 colon): > 100 µM
- TGI (SK-OV-3 ovarian): > 100 µM
- TGI (T-47D breast): > 100 µM
- TGI (RPMI-8226 leukemia): > 100 µM
- TGI (SF-295 CNS): > 100 µM
- TGI (HOP-92 NSCLC): > 100 µM
- TGI (A498 renal): > 100 µM
- TGI (U251 CNS): > 100 µM
- TGI (KM12 colon): > 100 µM
- TGI (NCI/ADR-RES ovarian): > 100 µM
- TGI (A549 NSCLC): > 100 µM
- TGI (786-0 renal): > 100 µM
- TGI (SNB-19 CNS): > 100 µM
- TGI (SNB-75 CNS): > 100 µM
- TGI (UO-31 renal): > 100 µM
- TGI (SK-MEL-5 melanoma): > 100 µM
- TGI (NCI-H23 lung): > 100 µM
- TGI (MALME-3M melanoma): > 100 µM
- TGI (SK-MEL-2 melanoma): > 100 µM
- TGI (OVCAR-8 ovarian): > 100 µM
- TGI (NCI-H226 lung): > 100 µM
- TGI (TK-10 renal): > 100 µM
- TGI (SW-620 colon): > 100 µM
- TGI (ACHN renal): > 100 µM
- TGI (RXF 393 renal): > 100 µM
- TGI (MCF7 breast): > 100 µM
- TGI (EKVX NSCLC): > 100 µM
- TGI (HL-60(TB) leukemia): > 100 µM
- TGI (UACC-257 melanoma): > 100 µM
- TGI (SK-MEL-28 melanoma): > 100 µM
- TGI (M14 melanoma): > 100 µM
- TGI (UACC-62 melanoma): > 100 µM
- TGI (MOLT-4 leukemia): > 100 µM
- TGI (MDA-MB-231 breast): > 100 µM
